Columns and labels:
Settings in all cases: 100 μM
SARS-CoV-2 nsp14 = SARS-CoV-2 nsp14 (Severe acute respiratory syndrome coronavirus 2, UniProt P0DTD1); test: biochemical
SARS-CoV-2 nsp16/nsp10 = SARS-CoV-2 nsp16/nsp10 (Severe acute respiratory syndrome coronavirus 2, UniProt P0DTD1); test: biochemical
[1] = biological target: T1, human Glycine N-Methyltransferase (GNMT) (Homo sapiens, UniProt Q14749); test: HTRF methyltransferase selectivity assay, human GNMT; assay type: biochemical
T1 construct: purchased MyBioSource MBS636160
T1 sequence (Q14749 1-295): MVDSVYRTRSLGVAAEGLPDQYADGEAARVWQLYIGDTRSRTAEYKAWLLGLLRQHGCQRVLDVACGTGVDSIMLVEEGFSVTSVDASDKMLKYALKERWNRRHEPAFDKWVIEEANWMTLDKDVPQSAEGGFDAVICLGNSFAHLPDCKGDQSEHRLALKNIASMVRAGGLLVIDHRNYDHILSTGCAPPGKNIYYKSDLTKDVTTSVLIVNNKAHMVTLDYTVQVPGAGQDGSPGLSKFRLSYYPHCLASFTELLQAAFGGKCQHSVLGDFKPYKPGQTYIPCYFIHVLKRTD

SMILES: O=C(CSc1nc(CC(=O)Nc2cccc3nsnc23)cs1)Nc1ccc(F)cc1 [Compound 009-741-602]
- Percent inhibition at 100 μM, nsp14 (SARS-CoV-2 nsp14): 25 ±2%
- Percent inhibition at 100 μM, nsp16 (SARS-CoV-2 nsp16/nsp10): 45 ±5%
- Percent inhibition at 100 μM, Human [1]: 24 ±7%

SMILES: CC(=O)N1N=C(c2ccc3c(c2)OCO3)CC1c1cn(-c2ccccc2)nc1C (centres unmarked) [ZINC000012821397]
- Percent inhibition at 100 μM, nsp14 (SARS-CoV-2 nsp14): 27 ±5%
- Percent inhibition at 100 μM, nsp16 (SARS-CoV-2 nsp16/nsp10): 15 ±5%
- Percent inhibition at 100 μM, Human [1]: -5 ±2%

SMILES: COc1cc(NC(=O)C2CCN(Cc3nc(-c4cccc(C)c4)no3)CC2)c(OC)cc1Cl [ZINC000030974583]
- Percent inhibition at 100 μM, nsp14 (SARS-CoV-2 nsp14): 19 ±1%
- Percent inhibition at 100 μM, nsp16 (SARS-CoV-2 nsp16/nsp10): 45 ±11%
- Percent inhibition at 100 μM, Human [1]: 48 ±8%

SMILES: NS(=O)(=O)c1ccc(NC(=O)COC(=O)c2n[nH]c3ccccc23)cc1 [ZINC000005360401]
- Percent inhibition at 100 μM, nsp14 (SARS-CoV-2 nsp14): -15 ±7%
- Percent inhibition at 100 μM, nsp16 (SARS-CoV-2 nsp16/nsp10): 3 ±1%

SMILES: NC(=O)Cn1cnc2c(cnn2CCO)c1=O [ZINC000004940485]
- Percent inhibition at 100 μM, nsp14 (SARS-CoV-2 nsp14): 2 ±0%
- Percent inhibition at 100 μM, nsp16 (SARS-CoV-2 nsp16/nsp10): 6 ±6%

SMILES: O=C(c1ccc2c3c([nH]c2c1)CCCC3)N1CCC[C@H]1c1nc(-c2ccncc2)no1 [ZINC000952966781]
- Percent inhibition at 100 μM, nsp14 (SARS-CoV-2 nsp14): 11 ±10%
- Percent inhibition at 100 μM, nsp16 (SARS-CoV-2 nsp16/nsp10): 24 ±5%

SMILES: Cn1cnn(CCC(=O)N2CCCC(c3nc4ccccc4s3)C2)c1=O (centres unmarked) [Compound 046-705-372]
- Percent inhibition at 100 μM, nsp14 (SARS-CoV-2 nsp14): 5 ±3%
- Percent inhibition at 100 μM, nsp16 (SARS-CoV-2 nsp16/nsp10): 15 ±8%

SMILES: COc1ccc(CCNC(=O)C2C3C=CC4(CN(c5ccc6c(c5)OCO6)C(=O)C24)O3)cc1 (centres unmarked) [ZINC000012895535]
- Percent inhibition at 100 μM, nsp14 (SARS-CoV-2 nsp14): 5 ±2%
- Percent inhibition at 100 μM, nsp16 (SARS-CoV-2 nsp16/nsp10): -15 ±6%

SMILES: Cc1cc(-c2ccc(C(=O)NCC(N)=O)cc2)nc(N2CCOCC2)n1 [ZINC000534574506]
- Percent inhibition at 100 μM, nsp14 (SARS-CoV-2 nsp14): 3 ±3%
- Percent inhibition at 100 μM, nsp16 (SARS-CoV-2 nsp16/nsp10): 17 ±8%

SMILES: Cc1csc(C2CCCN(C(=O)CCn3cnc4c(N)ncnc43)C2)n1 (centres unmarked) [Compound 046-114-939]
- Percent inhibition at 100 μM, nsp14 (SARS-CoV-2 nsp14): 15 ±4%
- Percent inhibition at 100 μM, nsp16 (SARS-CoV-2 nsp16/nsp10): 37 ±13%

SMILES: Cc1[nH]c(-c2ccccc2)nc1C(=O)NCc1ccc2[nH]c(=O)[nH]c2c1 [ZINC000680227150]
- Percent inhibition at 100 μM, nsp14 (SARS-CoV-2 nsp14): 19 ±7%
- Percent inhibition at 100 μM, nsp16 (SARS-CoV-2 nsp16/nsp10): 23 ±5%

SMILES: CCN(Cc1ccncc1)C(=O)CC1C(=O)NCCN1CCCc1ccccc1 (centres unmarked) [ZINC000011821342]
- Percent inhibition at 100 μM, nsp14 (SARS-CoV-2 nsp14): 5 ±5%
- Percent inhibition at 100 μM, nsp16 (SARS-CoV-2 nsp16/nsp10): 17 ±11%

SMILES: Nc1ncnc2c1ncn2CC(O)CO (centres unmarked) [ZINC000000370772]
- Percent inhibition at 100 μM, nsp14 (SARS-CoV-2 nsp14): -9 ±12%
- Percent inhibition at 100 μM, nsp16 (SARS-CoV-2 nsp16/nsp10): -34 ±9%

SMILES: O=C(Cc1nnc(O)c2ccccc12)NCC(O)c1ccccc1 (centres unmarked) [ZINC000009340377]
- Percent inhibition at 100 μM, nsp14 (SARS-CoV-2 nsp14): 5 ±4%
- Percent inhibition at 100 μM, nsp16 (SARS-CoV-2 nsp16/nsp10): 2 ±5%

SMILES: Cn1c(=O)c(=O)n(CC(=O)NCCN(CCc2ccccc2)Cc2ccco2)c2ccccc21 [ZINC000021649685]
- Percent inhibition at 100 μM, nsp14 (SARS-CoV-2 nsp14): 10 ±9%
- Percent inhibition at 100 μM, nsp16 (SARS-CoV-2 nsp16/nsp10): 7 ±4%

SMILES: O=C(Cc1ccc2c(c1)CCO2)Nc1ccc2nc[nH]c(=O)c2c1 [ZINC000170622294]
- Percent inhibition at 100 μM, nsp14 (SARS-CoV-2 nsp14): -2 ±2%
- Percent inhibition at 100 μM, nsp16 (SARS-CoV-2 nsp16/nsp10): -6 ±3%

SMILES: COc1ccc(C2=NN(C(=O)CCc3ccc4c(c3)OCO4)C(O)(C(F)(F)F)C2)cc1 (centres unmarked) [ZINC000016448507]
- Percent inhibition at 100 μM, nsp14 (SARS-CoV-2 nsp14): 9 ±4%
- Percent inhibition at 100 μM, nsp16 (SARS-CoV-2 nsp16/nsp10): 11 ±5%

SMILES: O=C(Nc1ccccc1-c1ccccc1)C1CCCN(c2ccc(-n3cncn3)nn2)C1 (centres unmarked) [ZINC000096124096]
- Percent inhibition at 100 μM, nsp14 (SARS-CoV-2 nsp14): 9 ±7%
- Percent inhibition at 100 μM, nsp16 (SARS-CoV-2 nsp16/nsp10): 10 ±1%

SMILES: Cn1nc(CC(=O)NCCCc2nnc3ccccn23)c2ccccc2c1=O [ZINC000095478169]
- Percent inhibition at 100 μM, nsp14 (SARS-CoV-2 nsp14): -6 ±2%
- Percent inhibition at 100 μM, nsp16 (SARS-CoV-2 nsp16/nsp10): -53 ±8%

SMILES: O=C(CC1(C(=O)O)CC(c2ccc(F)cc2)=NO1)Nc1cccc(C(=O)O)c1 (centres unmarked) [ZINC000072406141]
- Percent inhibition at 100 μM, nsp14 (SARS-CoV-2 nsp14): 14 ±7%
- Percent inhibition at 100 μM, nsp16 (SARS-CoV-2 nsp16/nsp10): 31 ±8%

SMILES: O=C(CCCn1cncn1)N1CCCC(c2nc3ccccc3s2)C1 (centres unmarked) [Compound 045-938-897]
- Percent inhibition at 100 μM, nsp14 (SARS-CoV-2 nsp14): 7 ±2%
- Percent inhibition at 100 μM, nsp16 (SARS-CoV-2 nsp16/nsp10): -29 ±5%

SMILES: NS(=O)(=O)c1ccc(NC2=NC(=O)C(CC(=O)O)S2)cc1 (centres unmarked) [ZINC000001797008]
- Percent inhibition at 100 μM, nsp14 (SARS-CoV-2 nsp14): 0 ±2%
- Percent inhibition at 100 μM, nsp16 (SARS-CoV-2 nsp16/nsp10): -35 ±10%

SMILES: Cn1cc(CCC(=O)N2CCCC(c3nc4ccccc4s3)C2)cn1 (centres unmarked) [Compound 046-706-934]
- Percent inhibition at 100 μM, nsp14 (SARS-CoV-2 nsp14): 5 ±3%
- Percent inhibition at 100 μM, nsp16 (SARS-CoV-2 nsp16/nsp10): -113 ±16%

SMILES: O=C(CCc1nc2cc(Cl)ccc2[nH]1)N1CC[C@H](n2c(=O)[nH]c3cccnc32)C1 [ZINC1548405210]
- Percent inhibition at 100 μM, nsp14 (SARS-CoV-2 nsp14): 6 ±2%
- Percent inhibition at 100 μM, nsp16 (SARS-CoV-2 nsp16/nsp10): 15 ±2%

SMILES: O=C(C1CCc2sc(-c3ccncc3)nc2C1)N1CCc2c(nc[nH]c2=O)C1 (centres unmarked) [ZINC1772809556]
- Percent inhibition at 100 μM, nsp14 (SARS-CoV-2 nsp14): 15 ±9%
- Percent inhibition at 100 μM, nsp16 (SARS-CoV-2 nsp16/nsp10): 5 ±8%

SMILES: CC(C)Cn1c(CNC(=O)c2ccccc2C(F)(F)F)nnc1SCc1ccncc1 [ZINC000012152850]
- Percent inhibition at 100 μM, nsp14 (SARS-CoV-2 nsp14): 2 ±8%
- Percent inhibition at 100 μM, nsp16 (SARS-CoV-2 nsp16/nsp10): 19 ±6%

SMILES: O=C(CCn1cncn1)N1CCCC1c1nc2ccccc2s1 (centres unmarked) [Compound 009-447-345]
- Percent inhibition at 100 μM, nsp14 (SARS-CoV-2 nsp14): 2 ±0%
- Percent inhibition at 100 μM, nsp16 (SARS-CoV-2 nsp16/nsp10): 1 ±1%

SMILES: Cc1nc(CC(=O)N2CCCC(c3nc4ccccc4s3)C2)cs1 (centres unmarked) [Compound 021-760-906]
- Percent inhibition at 100 μM, nsp14 (SARS-CoV-2 nsp14): 10 ±2%
- Percent inhibition at 100 μM, nsp16 (SARS-CoV-2 nsp16/nsp10): 28 ±6%

SMILES: Nc1ncnc2c1ncn2[C@@H]1O[C@H](COS(=O)(=O)NC(=O)c2ccccc2O)[C@@H](O)[C@H]1O [ZINC000028567519]
- Percent inhibition at 100 μM, nsp14 (SARS-CoV-2 nsp14): 28 ±2%
- Percent inhibition at 100 μM, nsp16 (SARS-CoV-2 nsp16/nsp10): 14 ±3%

SMILES: CCOc1ccccc1OCC(=O)N1CCCC(c2nc3ccccc3s2)C1 (centres unmarked) [Compound 005-679-672]
- Percent inhibition at 100 μM, nsp14 (SARS-CoV-2 nsp14): 6 ±0%
- Percent inhibition at 100 μM, nsp16 (SARS-CoV-2 nsp16/nsp10): -59 ±2%

SMILES: O=C(CCn1cncn1)N1CCC(c2nc3ccccc3s2)CC1 [Compound 009-436-708]
- Percent inhibition at 100 μM, nsp14 (SARS-CoV-2 nsp14): 2 ±1%
- Percent inhibition at 100 μM, nsp16 (SARS-CoV-2 nsp16/nsp10): -114 ±6%

SMILES: CC(C)N(CC1OC(n2cnc3c(N)ncnc32)C(O)C1O)C1CC(CCc2nc3cc(C(C)(C)C)ccc3[nH]2)C1 (centres unmarked) [ZINC000100074350]
- Percent inhibition at 100 μM, nsp14 (SARS-CoV-2 nsp14): 30 ±4%
- Percent inhibition at 100 μM, nsp16 (SARS-CoV-2 nsp16/nsp10): 68 ±7%

SMILES: O=C(O)CCC(=O)Nc1nc2n(n1)C(c1ccccc1)CC(=O)N2 (centres unmarked) [ZINC000000095711]
- Percent inhibition at 100 μM, nsp14 (SARS-CoV-2 nsp14): -16 ±0%
- Percent inhibition at 100 μM, nsp16 (SARS-CoV-2 nsp16/nsp10): -77 ±13%

SMILES: Cc1ccc(Oc2ncccc2CNC(=O)c2cnc(O)cc2O)cn1 [ZINC000067754517]
- Percent inhibition at 100 μM, nsp14 (SARS-CoV-2 nsp14): 11 ±3%
- Percent inhibition at 100 μM, nsp16 (SARS-CoV-2 nsp16/nsp10): 39 ±8%

From PMC8705538, “Discovery of SARS-CoV-2 Nsp14 and Nsp16 Methyltransferase Inhibitors by High-Throughput Virtual Screening” (Pharmaceuticals, 2021)
